Results published in patent US20130309187A1, “SKIN-WHITENING AGENT CONTAINING 3-HYDROXY-2-PYRONE” (NICHIREI BIOSCIENCES INC., priority 2011, published 2013).

How the values were obtained:
[1] = test system: tyrosinase (Sigma); test: Inhibition rate of tyrosinase activity (L-DOPA substrate, absorbance 475 nm); assay type: biochemical
Procedure: In the experiment, 0.2 ml of an enzyme solution containing 72 units/ml tyrosinase (Sigma) was mixed with 1.0 ml of a substrate mixture (i.e., a 2:2:1 mixture of a 6 mM L-DOPA solution, the test composition with the adjusted concentration (hereafter referred to as the “sample”), and phosphate buffer), the absorbance was measured at 475 nm at 37° C. at 0 min and […], and the inhibition rate of tyrosinase activity was determined using the equation shown below.
Inhibition rate of tyrosinase activity (%)=(1−(the difference in the absorbance of the sample between […] and 3 min)/(the difference in the absorbance of the blank between 0 min and 3 min)×100
(§1) In the experiment, 0.2 ml of an enzyme solution containing 72 units/ml tyrosinase (Sigma) was mixed with 1.0 ml of a substrate mixture (i.e., a 2:2:1 mixture of a 6 mM L-DOPA solution, the sample with the adjusted concentration, and phosphate buffer (pH 6.8)), the absorbance was measured at 475 nm at 37° C. at 0 min and 3 min, and the inhibition rate of tyrosinase activity was determined using the equation shown below.
Inhibition rate of tyrosinase activity (%)=(1−(the difference in the absorbance of the sample between 0 min and 3 min)/(the difference in the absorbance of the blank between 0 min and 3 min)×100
as §1, with “buffer),” for “buffer (pH 6.8)),”

[2] = test system: B16 mouse melanoma 4A5 cells; test: Inhibition of melanin production in B16 mouse melanoma 4A5 cells; assay type: cell-based; settings: for Melanin level: 5 days culture with sample, relative to control designated as 100
Procedure: (§2) B16 mouse melanoma 4A5 cells (RIKEN) were seeded at 5.0 x 10^4 cells/well on a 6-well plate and cultured in Dulbecco's modified Eagle's medium (DMEM) supplemented with 10% FBS at 37° C. in the presence of 5% CO2. The medium was exchanged with fresh medium supplemented with the sample on the following day, and culture was conducted in the medium supplemented with the sample for an additional 5 days. The medium was removed 6 days after the initiation of culture, and the cells were collected by using trypsin. The collected cells were suspended in 1N sodium hydroxide, and melanin was extracted via heating. The absorbance of the melanin extract was measured at 405 nm, and the melanin level was quantified with the calibration curve of the melanin reagent (Sigma). In addition, the amount of proteins in the collected cells was determined using the DC Protein Assay KIT (BIO-RAD) and used as the indicator for the viable cell count.
as §2, with “5.0×10^4” for “5.0 x 10^4”

[3] = test system: B16 mouse melanoma 4A5 cells; test: Viable cell count (protein amount, DC Protein Assay) in B16 mouse melanoma 4A5 cells
Procedure: as §2
as §2, with “5.0×10^4” for “5.0 x 10^4”

[4] = test system: tyrosinase; test: Inhibitory effects on tyrosinase activity (L-tyrosine substrate, time course of absorbance at 475 nm, method of Patent Document 1); assay type: biochemical; settings: Experiment 4, FIG. 3, aqueous solution of 1% sample, 0-15 min
Procedure: The experiment was carried out in the same manner as that described in Patent Document 1. An aqueous solution of 1% 3H2P, an aqueous solution of 1% coumalin (Tokyo Chemical Industry Co., Ltd.), an aqueous solution of 1% coumalic acid (Tokyo Chemical Industry Co., Ltd.), and an aqueous solution of 0.01% kojic acid were prepared. Subsequently, 1.45 ml of a substrate-sample mixture comprising an aqueous solution of L-tyrosine (0.3 mg/ml), a sample solution of 3H2P, etc., and McIlvaine buffer (pH 6.8) was introduced into a test tube, 0.05 ml of a tyrosinase solution (1 mg/ml) was added thereto, the resultant was mounted on a spectrophotometer capable of maintaining a constant temperature of 37° C., and the absorbance was measured at 475 nm with the elapse of time (once every minute between 0 min and 15 min).

[5] = Experiment 6, FIG. 5, kojic acid, 3H2P and 3H4P compared
[6] = Experiment 7, FIG. 6, 3H4P, 3H2P and kojic acid compared
[7] = Experiment 3, 1 μg/ml, relative to control designated as 100
[8] = Experiment 3, 5 μg/ml, relative to control designated as 100
[9] = Experiment 3, 10 μg/ml, relative to control designated as 100

Compound	inhibitory effects on tyrosinase activity [1, 5]	Melanin level ([2]; Experiment 7, 50 μg/ml)	Melanin level ([2]; Experiment 7, 100 μg/ml)	inhibitory effects on tyrosinase activity [4]	Melanin level ([2]; Experiment 3, 1 μg/ml)	Melanin level ([2]; Experiment 3, 5 μg/ml)	Melanin level ([2]; Experiment 3, 10 μg/ml)	inhibitory effects on melanin production [2, 6]	Cell count [3, 7]	Cell count [3, 8]	Cell count [3, 9]	other results
O=c1cc(CO)occ1O [Kojic acid, kojic acid]	strongest inhibitory effects on tyrosinase activity	85.6	65.3									Melanin level ([2]; Experiment 3, 50 μg/ml): 76.5; Melanin level ([2]; Experiment 3, 100 μg/ml): 65.7; Cell count ([3]; Experiment 3, 50 μg/ml, relative to control designated as 100): 80.2; Cell count ([3]; Experiment 3, 100 μg/ml, relative to control designated as 100): 74.1; Cell count ([3]; Experiment 7, 50 μg/ml, relative to control designated as 100): 80.2; Cell count ([3]; Experiment 7, 100 μg/ml, relative to control designated as 100): 74.1
O=C(O)c1ccc(=O)oc1 [coumalic acid]				strong inhibitory effects								
O=c1occcc1O [3H2P, 3-hydroxy-2-pyrone]	equivalent to those of 3H4P			significantly stronger than those of coumalin and coumalic acid	71.7	34.3	20.7	stronger inhibitory effects on melanin production than such γ-pyrone compounds	92.2	81.9	72.4	inhibitory effects on tyrosinase activity ([1]; Experiment 2, FIG. 1, compared with kojic acid and ascorbic acid): equivalent to those of ascorbic acid, although such effects are somewhat weaker than those of kojic acid; inhibitory effects on tyrosinase activity ([1]; Experiment 5, FIG. 4, final concentrations 0.3%, 0.1% and 0.033%): apparently stronger than those of coumalin and coumalic acid; inhibitory effects on melanin production ([2]; Experiment 3, FIG. 2, compared with arbutin and kojic acid): stronger than those of kojic acid and equivalent to those of arbutin; concentration at which inhibitory effects on melanin production are exerted ([2]; Experiment 3, 1 ppm = 1 μg/ml, 0.0001%): ≤ 1 ppm; Melanin level ([2]; Experiment 7, 1 μg/ml): 77.2; Melanin level ([2]; Experiment 7, 5 μg/ml): 42.7; Melanin level ([2]; Experiment 7, 10 μg/ml): 29.6; Cell count ([3]; Experiment 7, 1 μg/ml, relative to control designated as 100): 102.0; Cell count ([3]; Experiment 7, 5 μg/ml, relative to control designated as 100): 98.7; Cell count ([3]; Experiment 7, 10 μg/ml, relative to control designated as 100): 93.8
O=c1cccco1 [coumalin]				insignificant levels of inhibitory effects								
OC[C@H]1O[C@@H](Oc2ccc(O)cc2)[C@H](O)[C@@H](O)[C@@H]1O [Arbutin, arbutin]					82.4	43.0	23.9		96.2	91.7	86.0	
O=c1ccocc1O [3H4P, 3-Hydroxy-4-pyrone]		88.8	50.9					equivalent to those of kojic acid				Cell count ([3]; mouse, 5 days, 50 μg/ml): 89.7; Cell count ([3]; mouse, 5 days, 100 μg/ml): 84.4
